Data taken from patent US7033829B2, “Method to inhibit cell growth using oligonucleotides” (Trustees of Boston University, priority 2000, dated 2006).
Oligonucleotides are written 5' to 3', each unit as a sugar letter and its base; * is a phosphorothioate linkage, no mark a phosphodiester; rarer units and linkages stand in square brackets, end groups in braces. Plain capitals give the bases only. d = 2'-deoxy (DNA); {P} = phosphate

Assays:
[1] = tested on: mitochondrial enzymes ATPase, cytochrome c oxidase and NADH dehydrogenase genes; experiment: DNA microarray / RT-PCR / northern of mitochondrial genes in SCC12F; assay type: cell-based, human
Excerpt: Exposure of keratinocytes to UVB irradiation affects the expression of genes involved in cell cycle arrest, DNA repair and cytokine production. Single-stranded oligonucleotides sharing sequence homology with the telomere 3′ overhang, when introduced into cells, mimic these UV effects. To identify other genes that may be similarly modulated, cells of keratinocyte origin (SCC12F; a human epidermal squamous cell carcinoma line provided by Dr. James Rheinwald of Harvard University) were exposed to solar simulated irradiation (SSR) (20 mJ/cm^2, measured at 285±5 nm), to an 11-base oligonucleotide (pGTTAGGGTTAG; SEQ ID NO:5) homologous to the telomere overhang (T-oligo), or to a complementary sequence as control [pCTAACCCTAAC; (SEQ ID NO:9) control oligonucleotide]. […] These are mitochondrial-transcribed genes whose encoded proteins participate in cellular respiration.

[2] = tested on: Human cervical carcinoma cells (HeLa cells); experiment: Cell growth of HeLa cells; assay type: cell-based; conditions: 100 μM; 1, 4 and 6 days after dosage
Description: Human cervical carcinoma cells (HeLa cells) were maintained in DME+10% calf serum and dosed with either water (diluent) or 100 μM T2. Cells were collected 1, 4 and 6 days after dosage and counted by Coulter™ counter.

[3] = tested on: Normal human neonatal fibroblasts; experiment: Cell growth of normal neonatal fibroblasts; assay type: cell-based; conditions: 100 μM
Description: Normal human neonatal fibroblasts were plated in Falcon P35 culture dishes at a density of 9×10^4 cells/dish. The culture medium was DME+10% calf serum, 2 ml per plate. One day after plating, cultures were supplemented with either 100 μM T2 in DME or 100 μM A2 in DME, or water (control). Two plates were collected and counted before the additions to give a starting, or “day 0,” reading. Duplicate plates of each condition were harvested through five days after addition of the supplements and cell number determined. All cell counts were done by Coulter™ Counter.
In a second experiment, normal human neonatal fibroblasts were plated and cultured, as described above in Example 1 for SCC12F cells. Cultures were supplemented with either 100 μM T2 or water (control), and cells were harvested for cell counts. The cell yield in fibroblast cultures treated with T2 was reduced by 40% compared to that of paired control cultures after three days (FIG. 8). This corresponds to 4 population doublings in this time for control cells, compared with 3.6 doublings for T2-treated cells.

IL-10 = IL-10 mRNA (RT-PCR) and protein (ELISA) in keratinocytes; assay type: cell-based, human
Description: The immunomodulatory effect of pTpT was tested in vitro using human keratinocytes. Duplicate cultures of primary human keratinocytes were treated with pTpT, diluent or UVB irradiation (200 J/m^2) or sham irradiation. Cells were collected at various times after treatment and analyzed for IL-10 protein by ELISA and for IL-10 mRNA by RT-PCR. An increase in IL-10 mRNA was detected after 6 hours in irradiated cells and after 48 hours in pTpT treated cells. An increase in IL-10 protein of 18 pg/ml was detected 24 hours after irradiation and 15±2 pg/ml 72 hours after treatment with pTpT. […] In the allogenic MLR, T cell activation is measured as lymphocyte proliferation, measured by ^3H-thymidine incorporation. IL-10 activity of culture medium from the 72 hour pTpT sample was measured by addition of the >10 kD components (containing the 18 kD IL-10 protein). […] Thus, like UVB irradiation, pTpT induces IL-10 in human keratinocytes which is likely to cooperate with TNFα to inhibit contact hypersensitivity in pTpT treated skin.

[4] = tested on: squamous carcinoma line SCC12F; experiment: Cell yields of UVA-irradiated SCC12F cells after pretreatment; assay type: cell-based, human; conditions: 100 μM 3 days pretreatment; 10 J/cm^2 UVA
Description: Cells from the well differentiated squamous carcinoma line SCC12F (gift of Dr. James Rheinwald, Harvard University) were treated with 100 μM pTpT or diluent as control for 3 days. Then cells were re-plated in medium lacking pTpT and were sham- or UV-irradiated with 10 J/cm^2 UVA (Sellas Sunlight UVA lamp). Cell yields were determined at different intervals after UV irradiation.

[5] = tested on: pCMV-Luc plasmid in human newborn fibroblasts; experiment: Repair of singlet oxygen-damaged pCMV-Luc plasmid in fibroblasts; assay type: cell-based; conditions: 100 μM 48 hours
Description: The plasmid pCMV-Luc is a non-replicating vector containing a reporter gene, luciferase, under the control of a strong constitutive cytomegalovirus promoter (gift of Dr. Hedayati, Johns Hopkins University). Singlet oxygen-induced DNA damage of the plasmid was generated by irradiating the plasmid with visible light for different time intervals (0 min, 10 min and 20 min), in the presence of the photosensitizer methylene blue. Fibroblasts (human newborn), pretreated for 48 hours with 100 μM pTpT or with diluent alone, were transfected with 0.5 μg of pCMV-Luc using Lipofect Aminem (Promega, Madison, Wis.). After two days, plasmid-encoded luciferase activity was determined in cell extracts (Promega luciferase assay). Pretreatment with pTpT enhanced the repair of singlet oxygen-induced DNA damage after […] by 179% and 228% respectively. FIG. 26 represents luciferase activity as a percent of luciferase activity assayed in fibroblasts transfected with sham irradiated plasmid.

p53 = p53 (Homo sapiens, UniProt P04637); experiment: p53 assay using hGH reporter plasmid in p53-transfected H1299 cells; assay type: cell-based; set-up: expressed in transfected cells; host or cells: H1299 lung carcinoma cells (p53-null); vector from Dr. Bert Vogelstein; conditions: 100 μM; 24 hours
p53, sequence (P04637 whole entry): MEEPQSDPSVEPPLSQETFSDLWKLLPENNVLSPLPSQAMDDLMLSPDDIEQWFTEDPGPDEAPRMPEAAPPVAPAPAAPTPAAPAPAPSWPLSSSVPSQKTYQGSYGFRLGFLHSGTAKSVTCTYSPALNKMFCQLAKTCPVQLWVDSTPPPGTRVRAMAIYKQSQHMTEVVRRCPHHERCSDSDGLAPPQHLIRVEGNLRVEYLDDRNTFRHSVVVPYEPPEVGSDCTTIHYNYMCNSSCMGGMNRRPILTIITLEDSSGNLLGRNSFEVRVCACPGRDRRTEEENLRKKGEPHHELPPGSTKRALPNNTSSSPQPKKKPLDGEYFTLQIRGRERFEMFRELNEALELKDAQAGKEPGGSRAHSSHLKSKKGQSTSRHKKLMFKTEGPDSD
Description: H1299 cells were similarly transfected with p53 expression vector or control vector. Two days after the transfection these cells were cotransfected with pPG-GH and PSV-β-galactosidase control vector, and treated with 100 μM pTpT. Twenty-four hours later, 250 μl of the medium and the cell lysate were harvested and processed as described above.

Row | Substance | downregulation of 8 genes (microarray) [1] [%] | genes downregulated as early as ([1]; RT-PCR and northern blot) [h] | cell growth rate [2] | cell yield reduced compared to paired control cultures ([3]; after three days) [%] | population doublings ([3]; three days (control 4)) | increase in IL-10 protein (IL-10; 72 hours after treatment) [pg/mL] | time after which an increase in IL-10 mRNA was detected (IL-10; primary human keratinocytes) [h] | yields of UVA irradiated cells [4] | enhanced repair of singlet oxygen-induced DNA damage ([5]; 10 mJ/cm^2) [%] | enhanced repair of singlet oxygen-induced DNA damage ([5]; 20 mJ/cm^2) [%] | increase in hGH secretion compared to diluent-treated cells (p53) [%]
1 | pGTTAGGGTTAG (DNA {P}-dGdTdTdAdGdGdGdTdTdAdG) [SEQ ID NO: 5] | > 50 | 48 |  |  |  |  |  |  |  |  | 
2 | thymidine dinucleotide [pTpT] |  |  | marked decreases in cell growth rate | 40 | 3.6 | 15 ± 2 | 48 | increased the yields of UVA irradiated cells | 179 | 228 | 40
